# Experimental data reported in patent US20240190891A1, “PYRIDO OXAZINE AMINO DERIVATIVES AS ALK5 INHIBITORS” (CHIESI FARMACEUTICI S.P.A., priority 2020, published 2024).
# pIC50: −log10 of the molar value.
# Target: T1, human ALK5 (Homo sapiens, UniProt P36897)
# T1 construct: human ALK5 (recombinant TGF β1 N-term GST-tagged, 80-end); GST (N); purchased
# T1 sequence (P36897 80-503 limits assumed): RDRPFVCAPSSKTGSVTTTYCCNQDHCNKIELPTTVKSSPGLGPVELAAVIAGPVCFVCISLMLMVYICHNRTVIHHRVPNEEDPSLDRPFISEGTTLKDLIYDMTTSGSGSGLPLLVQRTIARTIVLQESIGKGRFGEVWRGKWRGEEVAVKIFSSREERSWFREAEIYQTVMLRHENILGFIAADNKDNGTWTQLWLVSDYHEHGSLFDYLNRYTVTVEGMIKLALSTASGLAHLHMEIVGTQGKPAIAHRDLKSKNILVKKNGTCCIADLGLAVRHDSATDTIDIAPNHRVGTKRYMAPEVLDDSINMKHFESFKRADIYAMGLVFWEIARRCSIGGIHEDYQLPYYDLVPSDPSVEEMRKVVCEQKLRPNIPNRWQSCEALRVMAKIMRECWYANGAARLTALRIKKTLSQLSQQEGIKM
# Experiment: ADP-GLO Kinases assay, inhibitory activity on ALK5
# Format: biochemical
# Settings: Table 10; purified recombinant human ALK5 2.6 nM, ADP-Glo, 25° C., 150 min incubation
# Method: The enzymatic activity of compounds of the present invention was monitored measuring the formation of ADP using the ADP-GLO Kinases assay. Following the incubation of the purified enzyme, a substrate and ATP, the produced ADP was converted into ATP, which in turn was converted into light by Ultra-Glo Luciferase. The luminescent signal positively correlated with ADP amount and kinase activity. Briefly, the kinase reaction was performed by incubating 2.6 nM of the purified, commercially available human ALK5 (recombinant TGF β1 N-term GST-tagged, 80-end), a final concentration of TGFβ1 peptide 94.5 μM (Promega, T36-58) and ultra-pure ATP (Promega V915B). The ATP concentration was set at the Km value (concentration of substrate which permits the enzyme to achieve half maximal velocity (Vmax)) of ALK5 (5 μM). All reactions/incubations were performed at 25° C. Compound and ALK5 kinase were mixed and incubated for 15 mins. Reactions were initiated by addition of ATP at a final concentration in the assay of 0.83 μM. After an incubation of 150 min, the reaction was stopped, and ADP production detected with ADP-Glo kit according to manufacturer's indications. The assay was performed in 384-well format and was validated using a selection of reference compounds that was tested in 11 point concentration-response curve.
# Compounds of the examples C1, C2 and C3 were tested in the same in vitro assay described above.
row,SMILES,pIC50
1,"CNCCNC(=O)c1cnccc1Nc1cc(-c2cc(Cl)ccc2F)nc2c1OCCN2 [Example 21, 4-{[6-(5-chloro-2-fluorophenyl)-2H,3H,4H-pyrido[3,2-b][1,4]oxazin-8-yl]amino}-N-[2-(methylamino)ethyl]pyridine-3-carboxamide]",> 9.00
2,"CN(C)CCNC(=O)c1cnccc1Nc1cc(-c2cc(Cl)ccc2F)nc2c1OCCN2 [Example 10, 4-{[6-(5-chloro-2-fluorophenyl)-2H,3H,4H-pyrido[3,2-b][1,4]oxazin-8-yl]amino}-N-[2-(dimethylamino)ethyl]pyridine-3-carboxamide]",> 9.00
3,"CNC(=O)c1cnccc1Nc1cc(-c2cc(Cl)ccc2F)nc2c1OCCN2 [Example 2, 4-{[6-(5-chloro-2-fluorophenyl)-2H,3H,4H-pyrido[3,2-b][1,4]oxazin-8-yl]amino}-N-methylpyridine-3-carboxamide]",> 9.00
4,"Fc1ccccc1-c1cc(Nc2ccncc2)c2c(n1)NCCO2 [Example 11, N-[6-(2-fluorophenyl)-2H,3H,4H-pyrido[3,2-b][1,4]oxazin-8-yl]pyridin-4-amine]",8.30 to 9.00
5,"Cc1cccc(-c2cc(Nc3ccncc3)c3c(n2)NCCO3)n1 [Example 5, N-[6-(6-methylpyridin-2-yl)-2H,3H,4H-pyrido[3,2-b][1,4]oxazin-8-yl]pyridin-4-amine]",8.00 to 8.30
6,"Clc1cccc(-c2cc(Nc3ccncc3)c3c(n2)NCCO3)c1 [Example 15, N-[6-(3-chlorophenyl)-2H,3H,4H-pyrido[3,2-b][1,4]oxazin-8-yl]pyridin-4-amine]",8.30 to 9.00
7,"COC(=O)c1cnccc1Nc1cc(-c2cc(Cl)ccc2F)nc2c1OCCN2 [Example 17, methyl 4-{[6-(5-chloro-2-fluorophenyl)-2H,3H,4H-pyrido[3,2-b][1,4]oxazin-8-yl]amino}pyridine-3-carboxylate]",> 9.00
8,"CNC(=O)c1cc(Nc2cc(-c3cc(Cl)ccc3F)nc3c2OCCN3)ccn1 [Example 6, 4-{[6-(5-chloro-2-fluorophenyl)-2H,3H,4H-pyrido[3,2-b][1,4]oxazin-8-yl]amino}-N-methylpyridine-2-carboxamide]",8.00 to 8.30
9,"Cc1cccc(-c2cc(Nc3ccncc3)c3c(n2)NCCO3)c1 [Example 18, N-[6-(3-methylphenyl)-2H,3H,4H-pyrido[3,2-b][1,4]oxazin-8-yl]pyridin-4-amine]",8.30 to 9.00
10,"O=C(NC1CC1)c1cnccc1Nc1cc(-c2cc(Cl)ccc2F)nc2c1OCCN2 [Example 23, 4-{[6-(5-chloro-2-fluorophenyl)-2H,3H,4H-pyrido[3,2-b][1,4]oxazin-8-yl]amino}-N-cyclopropylpyridine-3-carboxamide]",> 9.00
11,"CC(C)NC(=O)c1cnccc1Nc1cc(-c2cc(Cl)ccc2F)nc2c1OCCN2 [Example 22, 4-{[6-(5-chloro-2-fluorophenyl)-2H,3H,4H-pyrido[3,2-b][1,4]oxazin-8-yl]amino}-N-(propan-2-yl)pyridine-3-carboxamide]",8.30 to 9.00
12,"Fc1ccc(Cl)cc1-c1cc(Nc2ccnc3[nH]ncc23)c2c(n1)NCCO2 [Example 25, 6-(5-chloro-2-fluorophenyl)-N-{1H-pyrazolo[3,4-b]pyridin-4-yl}-2H,3H,4H-pyrido[3,2-b][1,4]oxazin-8-amine]",> 9.00
13,"CN(C)CCOC(=O)c1cnccc1Nc1cc(-c2cc(Cl)ccc2F)nc2c1OCCN2 [Example 27, 2-(dimethylamino)ethyl 4-{[6-(5-chloro-2-fluorophenyl)-2H,3H,4H-pyrido[3,2-b][1,4]oxazin-8-yl]amino}pyridine-3-carboxylate]",8.30 to 9.00
14,"Fc1ccc(Cl)cc1-c1cc(Nc2ccncc2)c2c(n1)NCCO2 [Example 1, N-[6-(5-chloro-2-fluorophenyl)-2H,3H,4H-pyrido[3,2-b][1,4]oxazin-8-yl]-pyridine-4-amine]",> 9.00
15,"Nc1cc(Nc2cc(-c3cc(Cl)ccc3F)nc3c2OCCN3)ccn1 [Example 3, N4-[6-(5-chloro-2-fluorophenyl)-2H,3H,4H-pyrido[3,2-b][1,4]oxazin-8-yl]pyridine-2,4-diamine]",8.30 to 9.00
16,"O=C(NC1CCNCC1)c1cnccc1Nc1cc(-c2cc(Cl)ccc2F)nc2c1OCCN2 [Example 24, 4-{[6-(5-chloro-2-fluorophenyl)-2H,3H,4H-pyrido[3,2-b][1,4]oxazin-8-yl]amino}-N-(piperidin-4-yl)pyridine-3-carboxamide]",> 9.00

# Results, then the molecule that gave them:
row,pIC50,SMILES
1,> 9.00,"O=C(NCCN(CCO)CCO)c1cnccc1Nc1cc(-c2cc(Cl)ccc2F)nc2c1OCCN2 [Example 37, N-{2-[bis(2-hydroxyethyl)amino]ethyl}-4-{[6-(5-chloro-2-fluorophenyl)-2H,3H,4H-pyrido[3,2-b][1,4]oxazin-8-yl]amino}pyridine-3-carboxamide]"
2,> 9.00,"CN(C)CCC(=O)Nc1cc(Nc2cc(-c3cc(Cl)ccc3F)nc3c2OCCN3)ccn1 [Example 34, N-(4-{[6-(5-chloro-2-fluorophenyl)-2H,3H,4H-pyrido[3,2-b][1,4]oxazin-8-yl]amino}pyridin-2-yl)-3-(dimethylamino)propanamide]"
3,> 9.00,"CN(C)CCNC(=O)c1cc2c(Nc3cc(-c4cc(Cl)ccc4F)nc4c3OCCN4)ccnc2[nH]1 [Example 49, 4-{[6-(5-chloro-2-fluorophenyl)-2H,3H,4H-pyrido[3,2-b][1,4]oxazin-8-yl]amino}-N-[2-(dimethylamino)ethyl]-1H-pyrrolo[2,3-b]pyridine-2-carboxamide]"
4,> 9.00,"COC(=O)c1cnccc1Nc1cc(-c2cccc(C)n2)nc2c1OCCN2 [Example 30, methyl 4-{[6-(6-methylpyridin-2-yl)-2H,3H,4H-pyrido[3,2-b][1,4]oxazin-8-yl]amino}pyridine-3-carboxylate]"
5,> 9.00,"CN1CCN(CCOC(=O)c2cnccc2Nc2cc(-c3cc(Cl)ccc3F)nc3c2OCCN3)CC1 [Example 29, 2-(4-methylpiperazin-1-yl)ethyl 4-{[6-(5-chloro-2-fluorophenyl)-2H,3H,4H-pyrido[3,2-b][1,4]oxazin-8-yl]amino}pyridine-3-carboxylate]"
6,> 9.00,"Cc1cccc(-c2cc(Nc3ccnc4[nH]ncc34)c3c(n2)NCCO3)n1 [Example 41, 6-(6-methylpyridin-2-yl)-N-{1H-pyrazolo[3,4-b]pyridin-4-yl}-2H,3H,4H-pyrido[3,2-b][1,4]oxazin-8-amine]"
7,> 9.00,"CN1CCC(NC(=O)c2cnccc2Nc2cc(-c3cc(Cl)ccc3F)nc3c2OCCN3)CC1 [Example 32, 4-{[6-(5-chloro-2-fluorophenyl)-2H,3H,4H-pyrido[3,2-b][1,4]oxazin-8-yl]amino}-N-(1-methylpiperidin-4-yl)pyridine-3-carboxamide]"
8,> 9.00,"CN1CCC(CCNC(=O)c2cc3c(Nc4cc(-c5cc(Cl)ccc5F)nc5c4OCCN5)ccnc3[nH]2)CC1 [Example 48, 4-{[6-(5-chloro-2-fluorophenyl)-2H,3H,4H-pyrido[3,2-b][1,4]oxazin-8-yl]amino}-N-[2-(1-methylpiperidin-4-yl)ethyl]-1H-pyrrolo[2,3-b]pyridine-2-carboxamide]"
9,> 9.00,"Cc1cccc(-c2cc(Nc3ccnc4[nH]ccc34)c3c(n2)NCCO3)n1 [Example 45, 6-(6-methylpyridin-2-yl)-N-{1H-pyrrolo[2,3-b]pyridin-4-yl}-2H,3H,4H-pyrido[3,2-b][1,4]oxazin-8-amine]"
10,> 9.00,"COC(=O)c1cc2c(Nc3cc(-c4cc(Cl)ccc4F)nc4c3OCCN4)ccnc2[nH]1 [Example 38, methyl 4-{[6-(5-chloro-2-fluorophenyl)-2H,3H,4H-pyrido[3,2-b][1,4]oxazin-8-yl]amino}-1H-pyrrolo[2,3-b]pyridine-2-carboxylate]"
11,> 9.00,"Cc1cccc(-c2cc(Nc3ccnc4[nH]cnc34)c3c(n2)NCCO3)n1 [Example 40, N-{3H-imidazo[4,5-b]pyridin-7-yl}-6-(6-methylpyridin-2-yl)-2H,3H,4H-pyrido[3,2-b][1,4]oxazin-8-amine]"
12,8.30 to 9.00,"Cc1cccc(-c2cc(Nc3ccncc3C(=O)NC3CCN(C)CC3)c3c(n2)NCCO3)n1 [Example 42, N-(1-methylpiperidin-4-yl)-4-{[6-(6-methylpyridin-2-yl)-2H,3H,4H-pyrido[3,2-b][1,4]oxazin-8-yl]amino}pyridine-3-carboxamide]"

# Same assay, conditions: Table 11, comparative examples; same in vitro assay
row,pIC50,SMILES
1,5.19,"Fc1ccc(Cl)cc1-c1cc(-c2ccncc2)c2c(n1)NCCO2 [Example C1, 4-[6-(5-chloro-2-fluorophenyl)-2H,3H,4H-pyrido[3,2-b][1,4]oxazin-8-yl]pyridine, reference compound]"
2,5.77,"Oc1ccc(-c2cc(-c3cc(Cl)ccc3F)nc3c2OCCN3)cc1 [Example C2, 4-[6-(5-chloro-2-fluorophenyl)-2H,3H,4H-pyrido[3,2-b][1,4]oxazin-8-yl]phenol, reference compound]"
